In ChEMBL document CHEMBL3243978, “2-(Substituted phenyl)oxazolo[4,5-b]pyridines and 2-(substituted phenyl)oxazolo[5,4-b]pyridines as nonacidic antiinflammatory agents” (J Med Chem, 1978):
≈ marks a conversion by molar mass, not a printed value.

What was measured:
Rattus norvegicus [1] = organism: Rattus norvegicus; experiment: animal or person; format: functional
Description: Antiinflammatory activity in rat assessed as inhibition of carrageenan-induced foot edema at 30 mg/kg

Rattus norvegicus [2] = experiment: Antiinflammatory activity in rat assessed as inhibition of carrageenan-induced foot edema; format: functional
[3] = Acute toxicity in po dosed mouse; conditions: in vivo
Rattus norvegicus [4] = organism: Rattus norvegicus; experiment: Antiarthritic activity in rat assessed as reduction in adjuvant-induced arthritic pain; format: functional
[5] = target: T1, Prostaglandin E synthase (Homo sapiens) (UniProt O14684)
T1 sequence (whole entry): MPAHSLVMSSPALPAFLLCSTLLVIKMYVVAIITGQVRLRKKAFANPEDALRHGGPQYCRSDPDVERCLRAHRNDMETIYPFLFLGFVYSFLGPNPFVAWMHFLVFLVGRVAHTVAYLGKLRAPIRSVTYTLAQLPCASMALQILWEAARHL
Description: Inhibition of prostaglandin synthetase (unknown origin)

Rattus norvegicus [6] = experiment: Toxicity in rat assessed as indomethacin-induced intestinal perforation at 256 mg/kg after 3 days; format: organism-based; parameters: dose 256 mg/kg; conditions: in vivo, 72 h
Rattus norvegicus [7] = experiment: Toxicity in rat assessed as indomethacin-induced intestinal perforation at 400 mg/kg after 3 days; format: organism-based; parameters: dose 400 mg/kg; conditions: in vivo, 72 h
Rattus norvegicus [8] = experiment: Toxicity in rat assessed as indomethacin-induced intestinal perforation at 1024 mg/kg after 3 days; format: organism-based; parameters: dose 1024 mg/kg; conditions: in vivo, 72 h

| SMILES | inhibition in vivo at 30 mg/kg (Rattus norvegicus [1]) | other results |
| --- | --- | --- |
| Clc1cccc(-c2nc3cccnc3o2)c1 | 8% |  |
| Cc1ccc(-c2nc3ncccc3o2)cc1 | 5% |  |
| CSc1ccccc1-c1nc2ncccc2o1 | 21% |  |
| N#Cc1ccccc1-c1nc2ncccc2o1 | 62% | ED50 (Rattus norvegicus [2]): 17 mg/kg; LD50 [3]: 1220 mg/kg; ED50 (Rattus norvegicus [4]): 20 mg/kg; ED50 (Mus musculus): 2 mg; ED50 [5]: 14 µg/mL (≈ 63.3 µM) |
| FC(F)(F)c1cccc(-c2nc3cccnc3o2)c1 | 7% |  |
| Cc1ccccc1-c1nc2ncccc2o1 | 0% |  |
| FC(F)(F)Oc1ccc(-c2nc3ncccc3o2)cc1 | 0% |  |
| Nc1ccccc1-c1nc2cccnc2o1 | 13% |  |
| COc1cccc(-c2nc3ncccc3o2)c1 | 14% |  |
| FC(F)(F)c1ccccc1-c1nc2ncccc2o1 | 19% |  |
| Brc1cccc(-c2nc3ncccc3o2)c1 | 23% |  |
| c1ccc(-c2nc3cccnc3o2)cc1 | 55% |  |
| Fc1ccc(-c2nc3ncccc3o2)c(F)c1 | 23% |  |
| Clc1ccc(-c2nc3ncccc3o2)cc1 | 24% |  |
| COc1ccc(-c2nc3cccnc3o2)cc1 | 29% |  |
| Fc1cccc(F)c1-c1nc2cccnc2o1 | 50% |  |
| COc1ccc2c(c1)c(CC(=O)O)c(C)n2C(=O)c1ccc(Cl)cc1 [INDOMETHACIN] |  | ED50 (Rattus norvegicus [2]): 2.7 mg/kg; LD50 [3]: 50 mg/kg; ED50 (Rattus norvegicus [4]): 0.27 mg/kg; ED50 (Mus musculus): 2.7 mg; ED50 [5]: 0.1 µg/mL (≈ 0.279 µM) |
| COc1ccc(C#N)c(-c2nc3ncccc3o2)c1 | 3% |  |
| COc1ccc(-c2nc3ncccc3o2)cc1 | 14% |  |
| Fc1ccccc1-c1nc2ncccc2o1 | 64% | Activity (Rattus norvegicus [6]): Non-toxic; ED50 (Rattus norvegicus [2]): 21 mg/kg; LD50 [3]: 556 mg/kg; ED50 (Rattus norvegicus [4]): 23 mg/kg; ED50 (Mus musculus): 6 mg; ED50 [5]: 3 µg/mL (≈ 14 µM) |
| O=[N+]([O-])c1ccccc1-c1nc2cccnc2o1 | 57% |  |
| Brc1ccccc1-c1nc2cccnc2o1 | 31% |  |
| CC(C)Cc1ccc(C(C)C(=O)O)cc1 (stereo unspecified) [IBUPROFEN] |  | ED50 (Rattus norvegicus [2]): 15 mg/kg; LD50 [3]: 1370 mg/kg; ED50 (Rattus norvegicus [4]): 27 mg/kg; ED50 (Mus musculus): 5 mg; ED50 [5]: 0.4 µg/mL (≈ 1.94 µM) |
| N#Cc1cccc(C#N)c1-c1nc2ncccc2o1 | 19% |  |
| COc1ccccc1-c1nc2ncccc2o1 | 9% |  |
| N#Cc1cccc(F)c1-c1nc2ncccc2o1 | 50% |  |

| SMILES | inhibition in vivo at 30 mg/kg (Rattus norvegicus [1]) | other results |
| --- | --- | --- |
| Clc1cccc(Cl)c1-c1nc2ncccc2o1 | 14% |  |
| Clc1ccccc1-c1nc2cccnc2o1 | 50% |  |
| N#Cc1cccc(-c2nc3ncccc3o2)c1 | 21% |  |
| Clc1cccc(-c2nc3ncccc3o2)c1 | 32% |  |
| COc1cccc(-c2nc3cccnc3o2)c1 | 0% |  |
| Brc1ccccc1-c1nc2ncccc2o1 | 24% |  |
| Clc1ccc(-c2nc3cccnc3o2)cc1 | 14% |  |
| O=[N+]([O-])c1ccc(-c2nc3cccnc3o2)cc1 | 5% |  |
| CCCCC1C(=O)N(c2ccccc2)N(c2ccccc2)C1=O [PHENYLBUTAZONE] |  | ED50 (Rattus norvegicus [2]): 28 mg/kg; Activity (Rattus norvegicus [7]): Non-toxic; LD50 [3]: 555 mg/kg; ED50 (Rattus norvegicus [4]): 14 mg/kg; ED50 (Mus musculus): 4.3 mg; ED50 [5]: 3 µg/mL (≈ 9.73 µM) |
| COc1ccc(Br)c(-c2nc3ncccc3o2)c1 | 8% |  |
| Cc1ccc(-c2nc3cccnc3o2)cc1 | 0% |  |
| Fc1cccc(-c2nc3cccnc3o2)c1 | 35% |  |
| N#Cc1ccc(-c2nc3cccnc3o2)cc1 | 17% |  |
| Cc1cccc(-c2nc3cccnc3o2)c1 | 14% |  |
| Fc1ccc(-c2nc3ncccc3o2)cc1 | 28% |  |
| c1ccc(-c2nc3ncccc3o2)cc1 | 41% |  |
| Fc1cc(Cl)ccc1-c1nc2ncccc2o1 | 19% |  |
| Fc1ccc(F)c(-c2nc3ncccc3o2)c1 | 18% |  |
| Cc1ccccc1-c1nc2cccnc2o1 | 3% |  |
| CC(=O)Oc1ccccc1C(=O)O [ASPIRIN] |  | Activity (Rattus norvegicus [8]): Non-toxic; ED50 (Rattus norvegicus [2]): 89 mg/kg; LD50 [3]: 1220 mg/kg; ED50 (Rattus norvegicus [4]): 67 mg/kg; ED50 (Mus musculus): 7 mg; ED50 [5]: 13.4 µg/mL (≈ 74.4 µM) |
| N#Cc1ccccc1-c1nc2cccnc2o1 | 61% | Activity (Rattus norvegicus [6]): Non-toxic; ED50 (Rattus norvegicus [2]): 11 mg/kg; LD50 [3]: 1500 mg/kg; ED50 (Rattus norvegicus [4]): 44 mg/kg; ED50 (Mus musculus): 3 mg; ED50 [5]: 16 µg/mL (≈ 72.3 µM) |
| Fc1cccc(F)c1-c1nc2ncccc2o1 | 66% | ED50 (Rattus norvegicus [2]): 22 mg/kg; LD50 [3]: 709 mg/kg; ED50 (Rattus norvegicus [4]): 7.4 mg/kg; ED50 (Mus musculus): 2.4 mg; ED50 [5]: 15 µg/mL (≈ 64.6 µM) |
| O=[N+]([O-])c1cccc(-c2nc3ncccc3o2)c1 | 21% |  |
| Fc1ccc(-c2nc3cccnc3o2)cc1 | 27% |  |
| Clc1ccccc1-c1nc2ncccc2o1 | 38% |  |
